Measured values as given in patent US10239902B2, “Stable peptide-conjugated ascorbic acid derivative, method for preparing same, and cosmetic composition comprising same” (CELLTRION INC., priority 2014, dated 2019).
Where a name gives a salt, the structure may show the parent alone.

Tests used:
[1] = tested on: B16F1 melanoma cell lines (ATCC CRL-6323); assay: Melanin inhibitory effect in B16F1 melanoma cells; format: cell-based; conditions: for Melanin/Protein Average: 72 hours, B16F1; for Melanin/Protein EX1: replicate EX1; for Melanin/Protein EX2: replicate EX2; for Melanin/Protein EX3: replicate EX3
Experimental: B16F1 melanoma cell lines (ATCC CRL-6323) were added to a DMEM medium supplemented with 10% fetal bovine serum, 100 U/ml penicillin and 100 μg/ml streptomycin and were cultured under the condition of 37° C. and 5% CO2. After culture, the medium was replaced with DMEM medium (Invitrogen-Gibco-BRL, cells/well), and treated with a suitable amount of a sample solution such that the final concentration of each test compound reached 0 μg/ml, 10 μg/ml, 20 μg/ml or 40 μg/ml. After 72 hours, the medium was removed, and the cells were washed with PBS (phosphate buffered saline), harvested, and dried at 60° C. Next, a melanin extraction solution (1 N NaOH+10% DMSO) was added to the cells which were then lysed at 80° C. Next, the amount of melanin was quantified using synthetic melanin as a standard, and the amount of protein was quantified. The amount of melanin per unit protein was calculated, and expressed as % control value relative to a control.

[2] = tested on: Human neonatal dermal fibroblast cells; assay: Effect on collagen activation: procollagen production in fibroblasts; format: cell-based; conditions: for Procollagen Average: 48 hours; for Procollagen Ex 1: replicate Ex 1; for Procollagen Ex 2: replicate Ex 2; for Procollagen Ex 3: replicate Ex 3
Experimental: Human neonatal dermal fibroblast cells (Cascade Co.) were seeded into a 24-well microplate (5×10^4 cells/well) with DMEM medium supplemented with 10% fetal bovine serum, and were cultured under the condition of 37° C. and 5% CO2 for 24 hours. The medium was replaced with serum-free DMEM medium, and the cells were cultured for 24 hours, and treated with each sample solution such that the final concentration of each test compound reached 1 μg/ml or 5 μg/ml. After 48 hours of culture, the cell culture medium was collected, and the amount of procollagen in the medium was measured using a collagen measurement kit (Takara Shuzo Co., Ltd., Japan). Specifically, the collected cell culture medium was added to a 96-well plate having a primary collagen antibody uniformly applied thereto, and was subjected to an antigen-antibody reaction at 37° C. for 3 hours. The cell culture medium was removed from each well which was then washed four times with PBS. A color-developing substance was added to each well and incubated at room temperature for 15 minutes, and then 1 N sulfuric acid solution was added to each well to stop the reaction. The absorbance at 450 nm was measured with a spectrophotometer. A standard curve was prepared using a standard solution, and the absorbance obtained as described above was substituted into the standard curve to thereby determine the production of procollagen in the cell culture medium in which each test compound was added.

[3] = Stability against water and heat (40° C., 75% relative humidity, HPLC); format: physicochemical; conditions: for percentage of the active ingredient relative to the initial value at day 0: 40° C., relative humidity 75%, sealed
Experimental: The stability of an active ingredient, which is used in cosmetic compositions, after water and heat, is an important factor not only in a preparation process, but also in the long-term storage of the composition. Thus, the stabilities of compounds I-1 and I-2, prepared in Examples 1 and 2, respectively, against water and heat, were measured. Specifically, each of compounds I-1 and I-2 was stored in a sealed state under the severe conditions of temperature of 40° C. and relative humidity of 75%, and the percentage of the active ingredient in each sample after 3, 7, 14 and 28 days relative to the initial value of the active value of the active ingredient at day 0 was analyzed by high-performance liquid chromatography (HPLC).

NC(N)=NCCC[C@H](N)C(=O)NCC(=O)N[C@@H](CC(=O)O)C(=O)NCCCOP(=O)(O)OC1=C(O)C([C@@H](O)CO)OC1=O (stereo partly drawn) [Compound I-2, (3S)-3-(2-((5)-2-amino-5-((diaminomethylene)amino)pentanamido)acetamido)-4-((3-((((5-((S)-1,2-dihydroxyethyl)-4-hydroxy-2-oxo-2,5-dihydrofuran-3-yl)oxy)(hydroxyl)phosphoryl)oxy)propyl)amino)-4-oxobutanoate hydrochloride]
Melanin/Protein Average ([1]; 10 μg/ml): 143.4 µg/mg
Melanin/Protein EX1 ([1]; 10 μg/ml): 133.4 µg/mg
Melanin/Protein EX2 ([1]; 10 μg/ml): 145.1 µg/mg
Melanin/Protein EX3 ([1]; 10 μg/ml): 151.7 µg/mg
Melanin/Protein Average ([1]; 20 μg/ml): 134.4 µg/mg
Melanin/Protein EX1 ([1]; 20 μg/ml): 137.9 µg/mg
Melanin/Protein EX2 ([1]; 20 μg/ml): 141.5 µg/mg
Melanin/Protein EX3 ([1]; 20 μg/ml): 123.7 µg/mg
Procollagen Average ([2]; 1 μg/ml): 253.1 ng/mL
Procollagen Ex 1 ([2]; 1 μg/ml): 252.4 ng/mL
Procollagen Ex 2 ([2]; 1 μg/ml): 243.8 ng/mL
Procollagen Ex 3 ([2]; 1 μg/ml): 263.1 ng/mL
Procollagen Average ([2]; 5 μg/ml): 302.7 ng/mL
Procollagen Ex 1 ([2]; 5 μg/ml): 298.1 ng/mL
Procollagen Ex 2 ([2]; 5 μg/ml): 301.6 ng/mL
Procollagen Ex 3 ([2]; 5 μg/ml): 308.5 ng/mL
percentage of the active ingredient relative to the initial value at day 0 ([3]; 0 day): 100%
percentage of the active ingredient relative to the initial value at day 0 ([3]; 3 days): 100.3%
percentage of the active ingredient relative to the initial value at day 0 ([3]; 7 days): 100.0%
percentage of the active ingredient relative to the initial value at day 0 ([3]; 14 days): 99.8%
percentage of the active ingredient relative to the initial value at day 0 ([3]; 28 days): 99.8%
stability under severe conditions (in words) ([3]; 28 days, compared with LAAP (Vitagen)): excellent stability comparable to that of commercially available LAAP (Vitagen)

NCCCOP(=O)(O)OC1=C(O)C([C@@H](O)CO)OC1=O (stereo partly drawn) [LAAP, 3-aminopropyl(5-((S)-1,2-dihydroxyethyl)-4-hydroxy-2-oxo-2,5-dihydrofuran-3-yl)hydrogen phosphate, reference compound]
Melanin/Protein Average ([1]; 10 μg/ml): 159.9 µg/mg
Melanin/Protein EX1 ([1]; 10 μg/ml): 148.2 µg/mg
Melanin/Protein EX2 ([1]; 10 μg/ml): 165.8 µg/mg
Melanin/Protein EX3 ([1]; 10 μg/ml): 165.8 µg/mg
Melanin/Protein Average ([1]; 20 μg/ml): 137.4 µg/mg
Melanin/Protein EX1 ([1]; 20 μg/ml): 132.4 µg/mg
Melanin/Protein EX2 ([1]; 20 μg/ml): 140.6 µg/mg
Melanin/Protein EX3 ([1]; 20 μg/ml): 139.1 µg/mg
Procollagen Average ([2]; 1 μg/ml): 242.3 ng/mL
Procollagen Ex 1 ([2]; 1 μg/ml): 231.4 ng/mL
Procollagen Ex 2 ([2]; 1 μg/ml): 251.3 ng/mL
Procollagen Ex 3 ([2]; 1 μg/ml): 244.1 ng/mL
Procollagen Average ([2]; 5 μg/ml): 281.1 ng/mL
Procollagen Ex 1 ([2]; 5 μg/ml): 268.1 ng/mL
Procollagen Ex 2 ([2]; 5 μg/ml): 276.1 ng/mL
Procollagen Ex 3 ([2]; 5 μg/ml): 299.1 ng/mL
percentage of the active ingredient relative to the initial value at day 0 ([3]; 0 day): 100%
percentage of the active ingredient relative to the initial value at day 0 ([3]; 3 days): 100.4%
percentage of the active ingredient relative to the initial value at day 0 ([3]; 7 days): 100.9%
percentage of the active ingredient relative to the initial value at day 0 ([3]; 14 days): 99.9%
percentage of the active ingredient relative to the initial value at day 0 ([3]; 28 days): 98.5%

Palmitoyl tripeptide-5 [KVK-Pal, reference compound]
Melanin/Protein Average ([1]; 10 μg/ml): 173.3 µg/mg
Melanin/Protein EX1 ([1]; 10 μg/ml): 156.9 µg/mg
Melanin/Protein EX2 ([1]; 10 μg/ml): 189.1 µg/mg
Melanin/Protein EX3 ([1]; 10 μg/ml): 173.8 µg/mg
Melanin/Protein Average ([1]; 20 μg/ml): 164.2 µg/mg
Melanin/Protein EX1 ([1]; 20 μg/ml): 151.9 µg/mg
Melanin/Protein EX2 ([1]; 20 μg/ml): 175.7 µg/mg
Melanin/Protein EX3 ([1]; 20 μg/ml): 165.1 µg/mg
Procollagen Average ([2]; 1 μg/ml): 244.4 ng/mL
Procollagen Ex 1 ([2]; 1 μg/ml): 248.9 ng/mL
Procollagen Ex 2 ([2]; 1 μg/ml): 259.7 ng/mL
Procollagen Ex 3 ([2]; 1 μg/ml): 224.7 ng/mL
Procollagen Average ([2]; 5 μg/ml): 283.6 ng/mL
Procollagen Ex 1 ([2]; 5 μg/ml): 273.9 ng/mL
Procollagen Ex 2 ([2]; 5 μg/ml): 295.5 ng/mL
Procollagen Ex 3 ([2]; 5 μg/ml): 281.3 ng/mL
